Source: the NIST ThermoML archive (doi:10.1021/acs.jced.7b00427)

Conditions: Gas, Buoyancy - hydrostatic balance with magnetic suspension - one sinker

C=C(F)C(F)(F)F [2,3,3,3-tetrafluoro-1-propene]
Conditions | mass density [kg/m3]
252.64 K, 70 kPa | 3.88
252.64 K, 110 kPa | 6.265
252.64 K, 124 kPa | 7.097
262.07 K, 81 kPa | 4.341
262.08 K, 113 kPa | 6.19
262.08 K, 136 kPa | 7.456
262.08 K, 157 kPa | 8.696
262.08 K, 169 kPa | 9.424
270.18 K, 105 kPa | 5.505
270.18 K, 132 kPa | 6.952
270.18 K, 172 kPa | 9.215
270.18 K, 232 kPa | 12.71
270.19 K, 256 kPa | 14.125
279.64 K, 75 kPa | 3.732
279.65 K, 118 kPa | 5.957
279.65 K, 168 kPa | 8.6
279.65 K, 219 kPa | 11.398
279.66 K, 261 kPa | 13.822
279.66 K, 302 kPa | 16.231
279.67 K, 352 kPa | 19.153
289.17 K, 279 kPa | 14.228
289.17 K, 433 kPa | 23.141
289.18 K, 186 kPa | 9.245
289.18 K, 223 kPa | 11.205
289.18 K, 344 kPa | 17.869
289.18 K, 502 kPa | 27.513
289.19 K, 84 kPa | 4.052
289.19 K, 143 kPa | 7.017
298.63 K, 249 kPa | 12.098
298.63 K, 312 kPa | 15.415
298.63 K, 363 kPa | 18.154
298.63 K, 419 kPa | 21.272
298.63 K, 599 kPa | 32.147
298.63 K, 647 kPa | 35.336
298.64 K, 134 kPa | 6.319
298.64 K, 204 kPa | 9.779
308.12 K, 125 kPa | 5.711
308.12 K, 242 kPa | 11.284
308.13 K, 188 kPa | 8.693
308.13 K, 282 kPa | 13.311
308.13 K, 367 kPa | 17.655
308.13 K, 460 kPa | 22.624
308.14 K, 517 kPa | 25.797
308.14 K, 551 kPa | 27.714
308.14 K, 608 kPa | 31.08
308.14 K, 741 kPa | 39.419
317.63 K, 418 kPa | 19.56
317.63 K, 514 kPa | 24.547
317.63 K, 613 kPa | 30.022
317.63 K, 892 kPa | 46.934
317.64 K, 202 kPa | 9.037
317.64 K, 351 kPa | 16.204
317.66 K, 116 kPa | 5.083
317.66 K, 166 kPa | 7.365
327.25 K, 522 kPa | 23.936
327.25 K, 597 kPa | 27.809
327.25 K, 825 kPa | 40.447
327.25 K, 1152 kPa | 61.545
327.26 K, 299 kPa | 13.167
327.26 K, 372 kPa | 16.57
327.26 K, 463 kPa | 20.996
327.27 K, 97 kPa | 4.113
327.27 K, 153 kPa | 6.549
327.27 K, 235 kPa | 10.227
336.67 K, 110 kPa | 4.549
336.67 K, 321 kPa | 13.728
336.67 K, 424 kPa | 18.45
336.67 K, 501 kPa | 22.051
336.67 K, 618 kPa | 27.852
336.67 K, 667 kPa | 30.331
336.67 K, 693 kPa | 31.586
336.67 K, 873 kPa | 41.236
336.67 K, 1254 kPa | 64.685
336.67 K, 1683 kPa | 100.038
336.68 K, 237 kPa | 10.013
345.74 K, 1557 kPa | 81.658
345.74 K, 1910 kPa | 112.152
345.75 K, 517 kPa | 21.914
345.75 K, 739 kPa | 32.609
345.75 K, 886 kPa | 40.193
345.75 K, 1229 kPa | 59.662
345.76 K, 145 kPa | 5.863
345.76 K, 305 kPa | 12.598
